The record followed here is ChEMBL document CHEMBL1123607, “Synthesis of potential anticancer agents: imidazo[4,5-c]pyridines and imidazo[4,5-b]pyridines” (J Med Chem, 1987).

Assay [1] concerns L1210. The assay is described as follows: Inhibition against the proliferation of L1210 leukemia. In kind it is functional, cell-based. The settings on record: Mus musculus.
In assay [2] the test system is L1210. The assay is described as follows: Mitotic index (MI). Format: functional, Mus musculus.
In assay [3] the test system is L1210. As to the kind of experiment: Percent increase in life span at 40 mg/kg on a single dose schedule against L1210 leukemia. Format: functional. The following applies: Mus musculus.
Assay [4] can be described thus: Cytotoxicity activity against the KB cell culture at less than 10 uM. In kind it is functional. The settings on record: Homo sapiens, read-out: ED50 (the source's name).

In the assay with L1210 [1], `CCOC(=O)Nc1cc(NC(c2ccccc2)c2ccccc2)c2[nH]cnc2n1` displayed a half-inhibitory concentration (IC50) of 0.37 µM. This compound also displayed an MI with L1210 [2] of 1.15 µM. In the assay with L1210 [3], the ILS at 40 mg/kg worked out at 59%.

On to `CCOC(=O)Nc1cc(Nc2ccccc2)c2[nH]cnc2n1`, for which the EC50 in assay [4] was 9.5 µM.
